From US11890288B2, “Sulfonamide or sulfinamide compound having effect of inducing BRD4 protein degradation and pharmaceutical use thereof” (MITSUBISHI TANABE PHARMA CORPORATION, priority 2020, dated 2024)

Key:
[1] = system: human prostate cancer LNCaP cells; experiment: Cytotoxic action on LNCaP cells (WST-8, 96 hr); format: cell-based; details: 96 hr culture
Outline: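 IC50 values reflect 50% cell survival relative to untreated cells, interpolated linearly between the two concentrations that bracket it. Survival was read by WST-8 after 96 hr of compound treatment of cells grown in 10% FBS/RPMI1640 at 37° C.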

BRD4 protein = BRD4 protein (Homo sapiens (Human), UniProt O60885); experiment: BRD4 protein degradation inducing action in LNCaP cells (immunofluorescence, 6 hr); format: cell-based; details: anti-BRD4 fluorescence intensity
Outline: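 LNCaP cells in 10% FBS/RPMI1640 exposed to compound for 6 hr, fixed, permeabilized and immunostained for BRD4 with Alexa Fluor 546 secondary; fluorescence (ex 560, em 572 nm) read by imaging. DC50 = concentration giving 50% of untreated signal, interpolated linearly between the two bracketing points.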

Row | DC50 (BRD4 protein) [pM] | Structure (SMILES) | IC50 [1] [pM]
1 | 800 | COC(=O)C[C@@H]1N=C(c2ccc(-c3ccc(C(=O)NCCc4ccc(S(=O)(=O)Nc5ccc(C)c6c(C#N)c[nH]c56)cc4)cc3C)cc2)c2c(sc(C)c2C)-n2c(C)nnc21 [Example 89, methyl [(6S)-4-{4′-[(2-{4-[(3-cyano-4-methyl-1H-indol-7-yl)sulfamoyl]phenyl}ethyl)carbamoyl]-2′-methyl [1,1′-biphenyl]-4-yl}-2,3,9-trimethyl-6H-thieno[3,2-f][1,2,4]triazolo[4,3-a][1,4]diazepin-6-yl]acetate] | 330
2 | 190 | COC(=O)C[C@@H]1N=C(c2ccc(-c3ccc(C(=O)NCc4ccc(S(=O)(=O)Nc5ccc(C)c6c(C#N)c[nH]c56)cc4)cc3F)cc2)c2c(sc(C)c2C)-n2c(C)nnc21 [Example 45, methyl [(6S)-4-{4′-[({4-[(3-cyano-4-methyl-1H-indol-7-yl)sulfamoyl]phenyl}methyl)carbamoyl]-2′-fluoro[1,1′-biphenyl]-4-yl}-2,3,9-trimethyl-6H-thieno[3,2-f][1,2,4]triazolo[4,3-a][1,4]diazepin-6-yl]acetate] | 220
3 | 54 | CCc1ccc(NS(=O)(=O)c2ccc(CNC(=O)c3cnc(-c4ccc(C5=N[C@@H](CC(=O)OC)c6nnc(C)n6-c6sc(C)c(C)c65)cc4)cn3)cc2)c2[nH]cc(C#N)c12 [Example 105, methyl [(6S)-4-(4-{5-[({4-[(3-cyano-4-ethyl-1H-indol-7-yl)sulfamoyl]phenyl}methyl)carbamoyl]pyrazin-2-yl}phenyl)-2,3,9-trimethyl-6H-thieno[3,2-f][1,2,4]triazolo[4,3-a][1,4]diazepin-6-yl]acetate] | 130
4 | 98 | COC(=O)C[C@@H]1N=C(c2ccc(-c3cc(C)c(C(=O)N[C@H](C)c4ccc(S(=O)(=O)Nc5ccc(C)c6c(C#N)c[nH]c56)cc4)cc3F)cc2)c2c(sc(C)c2C)-n2c(C)nnc21 [Example 98, methyl [(6S)-4-(4′-{[(1R)-1-{4-[(3-cyano-4-methyl-1H-indol-7-yl)sulfamoyl]phenyl}ethyl]carbamoyl}-2′-fluoro-5′-methyl[1,1′-biphenyl]-4-yl)-2,3,9-trimethyl-6H-thieno[3,2-f][1,2,4]triazolo[4,3-a][1,4]diazepin-6-yl]acetate] | 220
5 | 91 | COC(=O)C[C@@H]1N=C(c2ccc(-c3ccc(C(=O)N[C@H](C)c4ccc(S(=O)(=O)Nc5ccc(C)c6c(C#N)c[nH]c56)cc4)c(F)c3F)cc2)c2c(sc(C)c2C)-n2c(C)nnc21 [Example 99, methyl [(6S)-4-(4′-{[(1R)-1-{4-[(3-cyano-4-methyl-1H-indol-7-yl)sulfamoyl]phenyl}ethyl]carbamoyl}-2′,3′-difluoro[1,1′-biphenyl]-4-yl)-2,3,9-trimethyl-6H-thieno[3,2-f][1,2,4]triazolo[4,3-a][1,4]diazepin-6-yl]acetate] | 140
6 | 160 | CCc1ccc(NS(=O)(=O)c2ccc(CNC(=O)c3ccc(-c4ccc(C5=N[C@@H](CC(=O)OC)c6nnc(C)n6-c6sc(C)c(C)c65)cc4)c(C)c3)cc2)c2[nH]cc(C#N)c12 [Example Compound 117, methyl [(6S)-4-{4′-[({4-[(3-cyano-4-ethyl-1H-indol-7-yl)sulfamoyl]phenyl}methyl)carbamoyl]-2′-methyl[1,1′-biphenyl]-4-yl}-2,3,9-trimethyl-6H-thieno[3,2-f][1,2,4]triazolo[4,3-a][1,4]diazepin-6-yl]acetate] | 410
7 | 150 | COC(=O)C[C@@H]1N=C(c2ccc(-c3cnc(C(=O)NCc4ccc(S(=O)(=O)Nc5ccc(C)c6c(C#N)c[nH]c56)cc4)cc3C)cc2)c2c(sc(C)c2C)-n2c(C)nnc21 [Example 101, methyl [(6S)-4-(4-{6-[({4-[(3-cyano-4-methyl-1H-indol-7-yl)sulfamoyl]phenyl}methyl)carbamoyl]-4-methylpyridin-3-yl}phenyl)-2,3,9-trimethyl-6H-thieno[3,2-f][1,2,4]triazolo[4,3-a][1,4]diazepin-6-yl]acetate] | 270
8 | 300 | COC(=O)C[C@@H]1N=C(c2ccc(-c3ccc(C(=O)NCCc4ccc(S(=O)(=O)Nc5ccc(C)c6c(C#N)c[nH]c56)cc4)cc3Cl)cc2)c2c(sc(C)c2C)-n2c(C)nnc21 [Example 48, methyl [(6S)-4-{2′-chloro-4′-[(2-{4-[(3-cyano-4-methyl-1H-indol-7-yl)sulfamoyl]phenyl}ethyl)carbamoyl][1,1′-biphenyl]-4-yl}-2,3,9-trimethyl-6H-thieno[3,2-f][1,2,4]triazolo[4,3-a][1,4]diazepin-6-yl]acetate] | 490
9 | 470 | Cc1cc(-c2ccc(C3=N[C@@H](CC(=O)OC(C)(C)C)c4nnc(C)n4-c4sc(C)c(C)c43)cc2)ccc1C(=O)NCc1ccc(S(=O)(=O)Nc2ccc(C)c3c(C#N)c[nH]c23)cc1 [Example Compound 141, t-butyl [(6S)-4-{4′-[({4-[(3-cyano-4-methyl-1H-indol-7-yl)sulfamoyl]phenyl}methyl)carbamoyl]-3′-methyl[1,1′-biphenyl]-4-yl}-2,3,9-trimethyl-6H-thieno[3,2-f][1,2,4]triazolo[4,3-a][1,4]diazepin-6-yl]acetate] | 920
10 | 91 | COC(=O)C[C@@H]1N=C(c2ccc(-c3ccc(C(=O)NCCc4ccc(S(=O)(=O)Nc5ccc(C)c6c(C#N)c[nH]c56)cc4)nc3)cc2)c2c(sc(C)c2C)-n2c(C)nnc21 [Example 90, methyl [(6S)-4-(4-{6-[(2-{4-[(3-cyano-4-methyl-1H-indol-7-yl)sulfamoyl]phenyl}ethyl)carbamoyl]pyridin-3-yl}phenyl)-2,3,9-trimethyl-6H-thieno[3,2-f][1,2,4]triazolo[4,3-a][1,4]diazepin-6-yl]acetate] | 190
11 | 170 | Cc1sc2c(c1C)C(c1ccc(-c3ccc(C(=O)NCc4ccc(S(=O)(=O)Nc5ccc(C)c6c(C#N)c[nH]c56)cc4)nc3)cc1)=N[C@@H](CC(=O)OC(C)(C)C)c1nnc(C)n1-2 [Example Compound 145, t-butyl [(6S)-4-(4-{6-[({4-[(3-cyano-4-methyl-1H-indol-7-yl)sulfamoyl]phenyl}methyl)carbamoyl]pyridin-3-yl}phenyl)-2,3,9-trimethyl-6H-thieno[3,2-f][1,2,4]triazolo[4,3-a][1,4]diazepin-6-yl]acetate] | 440
12 | 230 | Cc1sc2c(c1C)C(c1ccc(-c3ccc(C(=O)NCc4ccc(S(=O)(=O)Nc5ccc(C)c6c(C#N)c[nH]c56)cc4)cc3)cc1)=N[C@@H](CC(=O)OC(C)(C)C)c1nnc(C)n1-2 [Example 63, t-butyl [(6S)-4-{4′-[({4-[(3-cyano-4-methyl-1H-indol-7-yl)sulfamoyl]phenyl}methyl)carbamoyl][1,1′-biphenyl]-4-yl}-2,3,9-trimethyl-6H-thieno[3,2-f][1,2,4]triazolo[4,3-a][1,4]diazepin-6-yl]acetate] | 450
13 | 5900 | COC(=O)C[C@@H]1N=C(c2ccc(-c3ccc(C(=O)NCC#Cc4ccc(S(=O)(=O)Nc5ccc(C)c6c(C#N)c[nH]c56)cc4)cc3)cc2)c2c(sc(C)c2C)-n2c(C)nnc21 [Example 31, methyl [(6S)-4-{4′-[(3-{4-[(3-cyano-4-methyl-1H-indol-7-yl)sulfamoyl]phenyl}prop-2-yn-1-yl)carbamoyl][1,1′-biphenyl]-4-yl}-2,3,9-trimethyl-6H-thieno[3,2-f][1,2,4]triazolo[4,3-a][1,4]diazepin-6-yl]acetate] | 4200
14 | 38000 | COC(=O)C[C@@H]1N=C(c2ccc(N3CC[C@@H](C(=O)NCc4ccc(S(=O)(=O)Nc5ccc(C)c6c(C#N)c[nH]c56)cc4)C3)cc2)c2c(sc(C)c2C)-n2c(C)nnc21 [Example 4, methyl [(6S)-4-(4-{(3R)-3-[({4-[(3-cyano-4-methyl-1H-indol-7-yl)sulfamoyl]phenyl}methyl)carbamoyl]pyrrolidin-1-yl}phenyl)-2,3,9-trimethyl-6H-thieno[3,2-f][1,2,4]triazolo[4,3-a][1,4]diazepin-6-yl]acetate] | 16000
15 | 41 | COC(=O)C[C@@H]1N=C(c2ccc(-c3ccc(C(=O)N[C@H](C)c4ccc(S(=O)(=O)Nc5ccc(C)c6c(C#N)c[nH]c56)cc4)nc3)cc2)c2c(sc(C)c2C)-n2c(C)nnc21 [Example 92, methyl {(6S)-4-[4-(6-{[(1R)-1-{4-[(3-cyano-4-methyl-1H-indol-7-yl)sulfamoyl]phenyl}ethyl]carbamoyl}pyridin-3-yl)phenyl]-2,3,9-trimethyl-6H-thieno[3,2-f][1,2,4]triazolo[4,3-a][1,4]diazepin-6-yl}acetate] | 87
16 | 130 | CCc1ccc(NS(=O)(=O)c2ccc(CCNC(=O)c3ccc(-c4ccc(C5=N[C@@H](CC(=O)OC(C)(C)C)c6nnc(C)n6-c6sc(C)c(C)c65)cc4)cc3)cc2)c2[nH]cc(C#N)c12 [Example Compound 137, t-butyl [(6S)-4-{4′-[(2-{4-[(3-cyano-4-ethyl-1H-indol-7-yl)sulfamoyl]phenyl}ethyl)carbamoyl][1,1′-biphenyl]-4-yl}-2,3,9-trimethyl-6H-thieno[3,2-f][1,2,4]triazolo[4,3-a][1,4]diazepin-6-yl]acetate] | 480
17 | 48 | COC(=O)C[C@@H]1N=C(c2ccc(-c3cnc(C(=O)NCc4ccc(S(=O)(=O)Nc5ccc(C)c6c(C#N)c[nH]c56)cc4)c(F)c3)cc2)c2c(sc(C)c2C)-n2c(C)nnc21 [Example 77, methyl [(6S)-4-(4-{6-[({4-[(3-cyano-4-methyl-1H-indol-7-yl)sulfamoyl]phenyl}methyl)carbamoyl]-5-fluoropyridin-3-yl}phenyl)-2,3,9-trimethyl-6H-thieno[3,2-f][1,2,4]triazolo[4,3-a][1,4]diazepin-6-yl]acetate] | 160
